Laboratory results from ChEMBL document CHEMBL1201862, “PubChem BioAssay data set” (2004).
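Grown in 96-well plates, cells were treated for 48 hours with each compound at five concentrations. Insufficient inhibition: endpoint recorded as highest concentration tested. GI50 marks 50% less growth.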 Activity calls are given as the source filed them. Rule as the data show it: active = GI50 up to about 1.1 µM and inactive = higher.

What was measured:
Assay in all cases: growth of human tumour cells (NCI), 48 h
786-0 = test system: 786-0
A498 = test system: A498
A549 = test system: A549
ACHN = test system: ACHN
CAKI-1 = test system: CAKI-1
CCRF-CEM = test system: CCRF-CEM
COLO 205 = test system: COLO 205
DU-145 = test system: DU-145
EKVX = test system: EKVX
HCC 2998 = test system: HCC 2998
HCT-116 = test system: HCT-116
HCT-15 = test system: HCT-15
HL-60 = test system: HL-60
HOP-62 = test system: HOP-62
HOP-92 = test system: HOP-92
HT-29 = test system: HT-29
Hs-578T = test system: Hs-578T
IGROV-1 = test system: IGROV-1
K562 = test system: K562
KM12 = test system: KM12
M14 = test system: M14
MCF7 = test system: MCF7
MDA-MB-231 = test system: MDA-MB-231
MDA-MB-435 = test system: MDA-MB-435
MDA-N = test system: MDA-N
MOLT-4 = test system: MOLT-4
Malme-3M = test system: Malme-3M
NCI-H226 = test system: NCI-H226
NCI-H23 = test system: NCI-H23
NCI-H460 = test system: NCI-H460
NCI-H522 = test system: NCI-H522
NCI/ADR-RES = test system: NCI/ADR-RES
OVCAR-4 = test system: OVCAR-4
OVCAR-5 = test system: OVCAR-5
OVCAR-8 = test system: OVCAR-8
PC-3 = test system: PC-3
RPMI-8226 = test system: RPMI-8226
RXF 393 = test system: RXF 393
SF-268 = test system: SF-268
SF-295 = test system: SF-295
SF-539 = test system: SF-539
SK-MEL-28 = test system: SK-MEL-28
SK-MEL-2 = test system: SK-MEL-2
SK-MEL-5 = test system: SK-MEL-5
SK-OV-3 = test system: SK-OV-3
SN12C = test system: SN12C
SNB-19 = test system: SNB-19
SNB-75 = test system: SNB-75
SR = test system: SR
SW-620 = test system: SW-620
T47D = test system: T47D
TK-10 = test system: TK-10
U-251 = test system: U-251
UACC-257 = test system: UACC-257
UACC-62 = test system: UACC-62
UO-31 = test system: UO-31
LOX IMVI = test system: LOX IMVI
OVCAR-3 = test system: OVCAR-3

Measured: GI50

Cc1ccc(S(=O)(=O)NNC(=O)Nc2ccc(Cl)cc2)cc1
inactive: 786-0 > 100 µM | A498 > 100 µM | A549 > 100 µM | ACHN 6.22 µM | CAKI-1 > 100 µM | CCRF-CEM > 100 µM | COLO 205 > 100 µM | DU-145 > 100 µM | EKVX > 100 µM | HCC 2998 > 100 µM | HCT-116 > 100 µM | HL-60 > 100 µM | HOP-62 > 100 µM | HOP-92 > 100 µM | HT-29 > 100 µM | Hs-578T > 100 µM | IGROV-1 > 100 µM | K562 4.26 µM | KM12 > 100 µM | M14 > 100 µM | MCF7 > 100 µM | MDA-MB-231 > 100 µM | MDA-MB-435 > 100 µM | MDA-N > 100 µM | MOLT-4 > 100 µM | Malme-3M > 100 µM | NCI-H226 > 100 µM | NCI-H23 > 100 µM | NCI-H460 > 100 µM | NCI-H522 > 100 µM | NCI/ADR-RES > 100 µM | OVCAR-4 51.5 µM | OVCAR-5 > 100 µM | OVCAR-8 > 100 µM | PC-3 > 100 µM | RPMI-8226 > 100 µM | RXF 393 > 100 µM | SF-268 > 100 µM | SF-295 > 100 µM | SF-539 54 µM | SK-MEL-28 > 100 µM | SK-MEL-2 > 100 µM | SK-MEL-5 53 µM | SK-OV-3 > 100 µM | SN12C > 100 µM | SNB-19 > 100 µM | SNB-75 25.5 µM | SR > 100 µM | SW-620 > 100 µM | T47D > 100 µM | TK-10 > 100 µM | U-251 > 100 µM | UACC-257 > 100 µM | UACC-62 > 100 µM | UO-31 > 100 µM
> 100 µM: HCT-15

CC1(C)N=c2c(ncn2CCCO)=C(C(N)=O)N1
inactive: 786-0 > 100 µM | A498 > 100 µM | A549 > 100 µM | ACHN > 100 µM | CAKI-1 > 100 µM | CCRF-CEM > 100 µM | COLO 205 > 100 µM | DU-145 > 100 µM | EKVX > 100 µM | HCC 2998 > 100 µM | HCT-116 > 100 µM | HL-60 > 100 µM | HOP-62 > 100 µM | HOP-92 > 100 µM | HT-29 > 100 µM | Hs-578T > 100 µM | IGROV-1 > 100 µM | K562 > 100 µM | KM12 > 100 µM | LOX IMVI > 100 µM | M14 > 100 µM | MCF7 > 100 µM | MDA-MB-231 > 100 µM | MDA-MB-435 > 100 µM | MDA-N > 100 µM | Malme-3M > 100 µM | NCI-H226 > 100 µM | NCI-H23 > 100 µM | NCI-H460 > 100 µM | NCI-H522 > 100 µM | NCI/ADR-RES > 100 µM | OVCAR-3 > 100 µM | OVCAR-4 > 100 µM | OVCAR-5 > 100 µM | OVCAR-8 > 100 µM | PC-3 > 100 µM | RPMI-8226 > 100 µM | RXF 393 > 100 µM | SF-268 > 100 µM | SF-295 > 100 µM | SF-539 > 100 µM | SK-MEL-28 > 100 µM | SK-MEL-5 > 100 µM | SK-OV-3 > 100 µM | SN12C > 100 µM | SNB-19 > 100 µM | SNB-75 60.4 µM | SR > 100 µM | SW-620 > 100 µM | T47D > 100 µM | TK-10 > 100 µM | U-251 > 100 µM | UACC-257 > 100 µM | UACC-62 > 100 µM
> 100 µM: HCT-15
